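Briefly, cells in 96-well plates were exposed to five compound concentrations for 48 h, and endpoints were estimated by linear interpolation. TGI marks complete inhibition of growth.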
Legend:
Test in all cases: DTP human tumour cell line panel, 48 h
786-0 renal = test system: 786-0 renal
A549 NSCLC = test system: A549 NSCLC
CAKI-1 renal = test system: CAKI-1 renal
CCRF-CEM leukemia = test system: CCRF-CEM leukemia
COLO 205 colon = test system: COLO 205 colon
DU-145 prostate = test system: DU-145 prostate
EKVX NSCLC = test system: EKVX NSCLC
HCC-2998 colon = test system: HCC-2998 colon
HCT-15 colon = test system: HCT-15 colon
HL-60(TB) leukemia = test system: HL-60(TB) leukemia
HOP-62 NSCLC = test system: HOP-62 NSCLC
HT29 colon = test system: HT29 colon
IGROV1 ovarian = test system: IGROV1 ovarian
K-562 leukemia = test system: K-562 leukemia
KM12 colon = test system: KM12 colon
LOX IMVI melanoma = test system: LOX IMVI melanoma
M14 melanoma = test system: M14 melanoma
MALME-3M melanoma = test system: MALME-3M melanoma
MCF7 breast = test system: MCF7 breast
MDA-MB-231 breast = test system: MDA-MB-231 breast
MDA-N = test system: MDA-N
NCI-H23 lung = test system: NCI-H23 lung
OVCAR-8 ovarian = test system: OVCAR-8 ovarian
PC-3 prostate = test system: PC-3 prostate
RPMI-8226 leukemia = test system: RPMI-8226 leukemia
RXF 393 renal = test system: RXF 393 renal
SF-268 CNS = test system: SF-268 CNS
SF-295 CNS = test system: SF-295 CNS
SK-MEL-28 melanoma = test system: SK-MEL-28 melanoma
SK-MEL-5 melanoma = test system: SK-MEL-5 melanoma
SK-OV-3 ovarian = test system: SK-OV-3 ovarian
SN12C renal = test system: SN12C renal
SNB-75 CNS = test system: SNB-75 CNS
SR leukemia = test system: SR leukemia
SW-620 colon = test system: SW-620 colon
T-47D breast = test system: T-47D breast
TK-10 renal = test system: TK-10 renal
UACC-257 melanoma = test system: UACC-257 melanoma
UACC-62 melanoma = test system: UACC-62 melanoma
A498 renal = test system: A498 renal
ACHN renal = test system: ACHN renal
BT-549 breast = test system: BT-549 breast
HCT-116 colon = test system: HCT-116 colon
MDA-MB-435 = test system: MDA-MB-435
MOLT-4 leukemia = test system: MOLT-4 leukemia
NCI-H226 lung = test system: NCI-H226 lung
NCI-H522 lung = test system: NCI-H522 lung
NCI/ADR-RES ovarian = test system: NCI/ADR-RES ovarian
OVCAR-3 ovarian = test system: OVCAR-3 ovarian
OVCAR-4 ovarian = test system: OVCAR-4 ovarian
OVCAR-5 ovarian = test system: OVCAR-5 ovarian
SK-MEL-2 melanoma = test system: SK-MEL-2 melanoma
SNB-19 CNS = test system: SNB-19 CNS
U251 CNS = test system: U251 CNS
UO-31 renal = test system: UO-31 renal

Measured: TGI

COc1ccc(C(=O)/C=C/c2ccc(OCC(=N)N)cc2)cc1OC
9.98 µM: SNB-75 CNS
4.39 µM: SR leukemia
4.82 µM: HL-60(TB) leukemia
8.86 µM: CCRF-CEM leukemia
8.31 µM: KM12 colon
not listed: A498 renal | ACHN renal | BT-549 breast | HCT-116 colon | MDA-MB-435 | MOLT-4 leukemia | NCI-H226 lung | NCI-H522 lung | NCI/ADR-RES ovarian | OVCAR-3 ovarian | OVCAR-4 ovarian | OVCAR-5 ovarian | SK-MEL-2 melanoma | SNB-19 CNS | U251 CNS | UO-31 renal
> 10 µM: all other assays above

NCCCNCCCNCCCN
8.96 µM: SF-268 CNS
72.9 µM: K-562 leukemia
42.4 µM: MOLT-4 leukemia
44.7 µM: SR leukemia
41.1 µM: RPMI-8226 leukemia
not listed: CCRF-CEM leukemia | SNB-75 CNS
> 100 µM: all other assays above

Reference: PubChem BioAssay (NCI)
